One compound from PMC4701221, “Novel Promising Estrogenic Receptor Modulators: Cytotoxic and Estrogenic Activity of Benzanilides and Dithiobenzanilides” (PLoS ONE, 2016) can be followed below.

Test [1] relates to A549 cells. Description: MTT assay, A549. Format: cell-based. Particulars: Homo sapiens, 72 h, lung adenocarcinoma, read-out: Cytotoxic activity IC50, A549. Here is the method:
The cell lines used in the cytotoxicity study, besides MCF-12A, were purchased from European Collection of Cell Culture (ECACC, Salisbury, UK): HEK293 (human embryonic kidney, ATTC no. CRL-1573), A549 (Human lung carcinoma, ECACC no. 86012804), CCD39Lu (Human lung fibroblasts, ECACC no. 90110512), MCF-7 (Human breast adenocarcinoma, ECACC no. 86012803) and MDA-MB-231 (Human breast adenocarcinoma ECACC no. 92020424). Cell lines were cultured in DMEM medium without phenol red and supplemented with 10% (v/v) FBS, 1% penicillin-streptomycin and 1% L-glutamine. MCF-12A (ATTC no. […]) was purchased from American Type Culture Collection (ATCC Manassas, VA 20110 USA). MCF-12A cells were kept in 1:1 mixture of Dulbecco’s modified Eagle’s medium and Ham’s F12 medium, 20 ng/ml human epidermal growth factor, 100 ng/ml cholera toxin, 0.01 mg/ml bovine insulin, 500 ng/ml hydrocortisone and 5% horse serum. All cell lines were cultured at 37°C, in a humidified atmosphere containing 5% CO2.
Compounds were dissolved in DMSO to the final concentration of […]. A549, CCD39Lu, MCF-7, MDA-MB-231 and MCF-12A cells were seeded in 96 wells plates at density 2x10^4 cells/well and incubated overnight as described above. Subsequently, cells were treated with tested compounds at concentrations: 100 μM; 50 μM; 25μM; 12.5μM; 6 μM; 3 μM; 1.5 μM. […] Cells were incubated 72 h at 37°C in a humidified atmosphere containing 5% CO2 in the cell culture media appropriate for each cell line. Then, the medium was aspirated and 170 μl MTT solution (5mg/ml) was added to each well. Plates were incubated for 2 hours at 37°C, and then plates were centrifuged at 1200 rpm for 3 minutes. The formazan crystals were dissolved in 200 μl DMSO and plates were further agitated on a plate shaker at 300–500 rpm for 10 minutes. Absorbance at 570 nm (with reference wavelenght 650 nm) was measured using a plate reader (Biotek Instruments, Elx-800). Cell viability was calculated as a percentage relative to the control.
(Formazan colour is commonly taken as a measure of viable cells.)

Test [2] concerns the target T1, ERα W383S (Homo sapiens, UniProt P03372, W383S).
T1 construct: expressed in transfected cells; host or cells: HEK293
T1 sequence (P03372 1-595 W383S): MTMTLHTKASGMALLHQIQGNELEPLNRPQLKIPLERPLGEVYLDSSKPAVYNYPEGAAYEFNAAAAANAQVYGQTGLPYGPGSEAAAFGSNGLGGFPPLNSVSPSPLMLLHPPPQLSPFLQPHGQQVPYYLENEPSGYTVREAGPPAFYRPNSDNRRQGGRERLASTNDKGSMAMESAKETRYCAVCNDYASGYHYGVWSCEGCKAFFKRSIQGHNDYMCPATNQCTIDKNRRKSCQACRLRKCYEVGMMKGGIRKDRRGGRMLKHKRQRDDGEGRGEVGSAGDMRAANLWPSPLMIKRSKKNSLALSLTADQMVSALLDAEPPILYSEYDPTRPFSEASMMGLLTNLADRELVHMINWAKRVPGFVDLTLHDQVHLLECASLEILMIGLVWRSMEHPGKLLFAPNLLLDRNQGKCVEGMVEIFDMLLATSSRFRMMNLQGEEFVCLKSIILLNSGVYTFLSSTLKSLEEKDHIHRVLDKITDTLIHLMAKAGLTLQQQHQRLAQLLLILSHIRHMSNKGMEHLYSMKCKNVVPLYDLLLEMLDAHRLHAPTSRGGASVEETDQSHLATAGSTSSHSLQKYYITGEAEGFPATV
Description: Estrogen Receptor luciferase assay in HEK293 cells transfected with ERα W383S. Format: cell-based. Particulars: HEK293, Fig 6A. From the text: To obtain a eukaryotic vector expressing only the ER-α nuclear receptor, a construct was designed by cloning a KpnI-BamHI fragment from plasmid pEGFP-C1-ERα containing the ERα coding sequence that includes a stop signal into the pEGFP-N3 plasmid (Clontech Laboratories, Palo Alto, CA) under the control of the CMV promoter. […] For mock transfections, pEGFP-N3 plasmid was digested with BglII and NotI and religated after polishing DNA ends to remove GFP coding sequence. Plasmid sequence was confirmed by automatic sequencing. Prior to transfection, cells were seeded in 48 well plates at density of 1.5 x 10^4 cells/well and incubated for 24 h to reach a cell confluence of 80–90%. […] MCF-7 cells, which endogenously express ERα receptor, were transfected with p3xERRE/ERE-luciferase plus the pRLTK Renilla luciferase control plasmid (95:5). Firefly and Renilla luciferase activities were measured using the Dual Luciferase Assay System (Promega, Madison, WI, USA), following a standard protocol using a Sirius L luminometer (Berthold Technologies, Bad Wildbad, Germany). Data were expressed as relative changes in luciferase activity and normalized to 100%.
Plasmids for the expression of the ERα W383A and ER-α W383S mutated receptors were constructed by the quick change site directed mutagenesis method using plasmid pEGFP-N-ERα as template.

Molecules are shown by their SMILES.

The IC50 is the concentration needed to halve the response being measured. Take `Fc1ccc(NC(=S)c2ccc(NC(=S)c3ccc(F)cc3)cc2)cc1` [Compound 18]: the 50% inhibitory concentration (IC50) in test [1] was > 100 µM. Further, in test [2], the “Activation of ER dependent transcription, ERα W383S vs wild type” value was “less active”.
